Test results from ChEMBL document CHEMBL1138862 (J Med Chem, 2006).
pIC50: −log10 of the molar value. Converted amounts (≈) assume the structure as drawn.

How the values were obtained:
Escherichia coli [1] = assay: Antibacterial activity against Escherichia coli pTMV19 in presence of mevalonate; assay type: functional
[2] = target: T1, Farnesyl diphosphate synthase (Escherichia coli K-12, UniProt P22939); assay: Inhibition of Escherichia coli FPPS
T1 sequence (P22939 whole entry): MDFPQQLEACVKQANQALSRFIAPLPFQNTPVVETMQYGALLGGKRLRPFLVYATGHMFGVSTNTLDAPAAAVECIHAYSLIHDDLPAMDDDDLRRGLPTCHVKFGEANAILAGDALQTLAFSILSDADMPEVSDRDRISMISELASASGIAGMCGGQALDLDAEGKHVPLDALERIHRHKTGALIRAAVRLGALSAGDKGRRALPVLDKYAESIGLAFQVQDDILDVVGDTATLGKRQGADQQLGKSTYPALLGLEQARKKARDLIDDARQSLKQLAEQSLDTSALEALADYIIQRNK

Escherichia coli [3] = assay: Antibacterial activity against Escherichia coli W3110; assay type: functional
Escherichia coli [4] = assay: Antibacterial activity against Escherichia coli pTMV19; assay type: functional
[5] = Inhibition of Trypanosoma brucei FPPS expressed in Escherichia coli
Escherichia coli [6] = assay: Antibacterial activity against Escherichia coli K12 by broth microdilution method; assay type: functional, organism-based
Escherichia coli [7] = assay: Antibacterial activity against Escherichia coli K12; assay type: functional
Escherichia coli [8] = assay: Ratio, MIC/MBC for Escherichia coli K12; assay type: functional
[9] = target: T2, 1-deoxy-D-xylulose 5-phosphate reductoisomerase (Escherichia coli K-12, UniProt P45568); assay: Inhibition of Escherichia coli DXR
T2 sequence (P45568 whole entry): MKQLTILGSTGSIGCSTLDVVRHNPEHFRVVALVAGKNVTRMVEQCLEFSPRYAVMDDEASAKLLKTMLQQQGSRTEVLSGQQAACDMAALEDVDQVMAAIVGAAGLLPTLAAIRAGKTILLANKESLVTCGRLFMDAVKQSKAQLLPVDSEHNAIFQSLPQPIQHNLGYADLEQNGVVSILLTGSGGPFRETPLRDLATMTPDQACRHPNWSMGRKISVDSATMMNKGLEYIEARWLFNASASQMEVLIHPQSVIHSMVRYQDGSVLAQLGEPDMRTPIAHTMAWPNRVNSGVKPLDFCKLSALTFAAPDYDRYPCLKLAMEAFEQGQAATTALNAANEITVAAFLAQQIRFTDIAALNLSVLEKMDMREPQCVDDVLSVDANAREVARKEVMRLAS

Escherichia coli [10] = assay: Ratio, MIC/MBC for Escherichia coli K12 in presence of fosmidomycin; assay type: functional
Escherichia coli [11] = assay: Antibacterial activity against Escherichia coli K12 in presence of fosmidomycin; assay type: functional

Compound | inhibition zone (IZ) (Escherichia coli [1]) [mm] | inhibition zone (IZ) (Escherichia coli [3]) [mm] | inhibition zone (IZ) (Escherichia coli [4]) [mm] | other results
O=P(O)(O)C(O)(Cn1cnc2ccccc21)P(=O)(O)O | 13 | 14 | 0 | pIC50 [2]: 6.15
O=CN(O)CCCP(=O)(O)O [FOSMIDOMYCIN] | 0 | 20 | 19 | pIC50 [5]: 6.70; pIC50 (Escherichia coli [6]): 6.66; MBC (Escherichia coli [7]): 2500 µM (≈ 458 µg/mL); MIC (Escherichia coli [7]): 312 µM (≈ 57.1 µg/mL)
CCCCCCC(CCCC)C(O)(P(=O)(O)O)P(=O)(O)O (centres undefined) | 0 | 0 | 0 | 
O=P(O)(O)C(NC1CCCCCCC1)P(=O)(O)O [(CYCLOOCTYLAMINO)METHYLENEDIPHOSPHONIC ACID] | 0 | 7 | 8 | 
O=P(O)(O)C(Nc1ccc(I)cn1)P(=O)(O)O | 7 | 7 | 7 | 
CC1(C)S[C@@H]2[C@H](NC(=O)C(C(=O)O)c3ccccc3)C(=O)N2[C@H]1C(=O)O (some centres undefined) [CARBENICILLIN] |  |  |  | MBC (Escherichia coli [7]): 20 µM (≈ 7.57 µg/mL); MIC (Escherichia coli [7]): 20 µM (≈ 7.57 µg/mL); Ratio (Escherichia coli [8]): 1
Cc1ccnc(N(Cc2ccccc2)C(P(=O)(O)O)P(=O)(O)O)c1 | 0 | 0 | 0 | 
Cc1ncccc1NC(P(=O)(O)O)P(=O)(O)O | 12 | 7 | 8 | 
O=P(O)(O)C(O)(Cc1cnc2ccccn12)P(=O)(O)O [MINODRONIC ACID] | 0 | 10 | 0 | pIC50 [2]: 5.96
O=P(O)(O)C(Nc1ccc(Cl)cn1)P(=O)(O)O | 12 | 13 | 9 | 
CO[C@@H]1[C@@H](OC(N)=O)[C@@H](O)[C@H](Oc2ccc3c(O)c(NC(=O)c4ccc(O)c(CC=C(C)C)c4)c(=O)oc3c2C)OC1(C)C [NOVOBIOCIN] | 15 | 9 | 9 | 
O=P(O)(O)C(Nc1ccccn1)P(=O)(O)O | 12 | 7 | 8 | 
O=P(O)(O)C(Nc1ccc(-c2ccccc2)cc1)P(=O)(O)O | 7 | 9 | 8 | 
CN[C@@H]1[C@H](O[C@H]2[C@H](O[C@H]3[C@H](O)[C@@H](O)[C@H](N=C(N)N)[C@@H](O)[C@@H]3N=C(N)N)O[C@@H](C)[C@]2(O)C=O)O[C@@H](CO)[C@H](O)[C@H]1O [STREPTOMYCIN] | 7 | 15 | 16 | 
CCCCCCCCCCC(O)(P(=O)(O)O)P(=O)(O)O | 0 | 0 | 0 | 
O=P(O)(O)C(O)(Cc1c[nH]cn1)P(=O)(O)O | 0 | 0 | 0 | 

Compound | inhibition zone (IZ) (Escherichia coli [1]) [mm] | inhibition zone (IZ) (Escherichia coli [3]) [mm] | inhibition zone (IZ) (Escherichia coli [4]) [mm] | other results
O=P(O)(O)CC(c1ccccn1)P(=O)(O)O (centres undefined) | 0 | 0 | 0 | 
CN(CCCCc1ccccc1)CCC(O)(P(=O)(O)O)P(=O)(O)O | 17 | 19 | 18 | pIC50 [5]: 3.35; pIC50 [2]: 5.89; pIC50 (Escherichia coli [6]): 4.48; pIC50 [9]: 3.61; MBC (Escherichia coli [7]): 1250 µM (≈ 477 µg/mL); MIC (Escherichia coli [7]): 156 µM (≈ 59.5 µg/mL); Ratio (Escherichia coli [10]): 0.5; MBC (Escherichia coli [11]): 625 µM; MIC (Escherichia coli [11]): 312 µM; Ratio (Escherichia coli [8]): 0.13
CC(C)(C)c1cccc(NC(P(=O)(O)O)P(=O)(O)O)c1 | 0 | 7 | 7 | 
O=C(N[C@H](CO)[C@H](O)c1ccc([N+](=O)[O-])cc1)C(Cl)Cl [CHLORAMPHENICOL] | 19 | 24 | 20 | 
O=P(O)(O)C(Nc1cccc(Cc2ccccc2)c1)P(=O)(O)O | 0 | 7 | 8 | 
Cc1ccc(C)c(COc2ccc(C)nc2NC(P(=O)(O)O)P(=O)(O)O)c1 | 0 | 0 | 0 | 
O=P(O)(O)C(Nc1cccc(-c2ccccc2)c1)P(=O)(O)O | 0 | 8 | 8 | 
O=P(O)(O)C(O)(Cc1cccc(Br)c1)P(=O)(O)O | 0 | 12 | 14 | 
CCCCCCCc1ccc(NC(P(=O)(O)O)P(=O)(O)O)cc1 | 0 | 0 | 0 | 
O=C(O)c1cn(C2CC2)c2cc(N3CCNCC3)c(F)cc2c1=O [CIPROFLOXACIN] |  |  |  | MBC (Escherichia coli [7]): 0.076 µM (≈ 0.0252 µg/mL); MIC (Escherichia coli [7]): 0.038 µM (≈ 0.0126 µg/mL); Ratio (Escherichia coli [8]): 0.5
O=P(O)(O)C(N1CCCCCC1)P(=O)(O)O [N-(HEXAMETHYLENEIMINO)METHYLENEBISPHOSPHONIC ACID] | 0 | 0 | 0 | 
O=P(O)(O)C(O)(Cc1cccc(Cl)c1)P(=O)(O)O | 0 | 8 | 11 | 
CCCCCCCCc1ccc(C(O)(P(=O)(O)O)P(=O)(O)O)cc1 | 0 | 0 | 0 | 
CN(C)[C@@H]1C(O)=C(C(N)=O)C(=O)[C@@]2(O)C(O)=C3C(=O)c4c(O)cccc4[C@@](C)(O)[C@H]3C[C@@H]12 [TETRACYCLINE] | 22 | 21 | 21 | 
CC(C)c1cccc(NC(P(=O)(O)O)P(=O)(O)O)c1 | 0 | 8 | 9 | 
